Test results taken from patent US8486916B2, “Medicine, food and drink or feed containing sphingomyelin” (Megmilk Snow Brand Co., Ltd., priority 2005, dated 2013).

Key:
[1] = tested on: sialomucin content in the saliva; test: Effect of promoting sialomucin secretion: sialomucin content in rat saliva; type: in vivo, SD rats; settings: 7th day of experimental diet containing 1% of the substance
Procedure: Seven-week-old male SD rats (manufactured by Charles River Laboratories, Japan, Inc) were raised under conditions involving humidity of 60%, room temperature of 24° C., and light-dark (12 hour/12 hour) control. All the rats were preliminarily raised for 1 week with a standard diet and then divided into 3 groups each containing 12 individuals. These groups were allowed to freely take their respective experimental diets and raised for 1 week. Rat saliva was collected on the 7th day after the administration of experimental diets. A sialomucin content in the saliva was measured by high-performance liquid chromatography. […] In this context, a sialomucin content in the saliva was measured by the following method: 0.2 ml of a Nembutal solution was intramuscularly injected to rats fasted for 2 hours or longer. After anesthesia, a solution of pilocarpine hydrochloride serving as a saliva secretion promoter was intramuscularly injected thereto. […] A sialomucin content in the sialomucin fraction was quantified with a Sialic Acid Fluorescence Labeling Kit (Takara Bio Inc.). […] Free N-acetyl sialic acid or O-acetylated sialic acid was reacted at 55° C. for 2.5 hours by the addition of a DMB reagent as a fluorescence labeling agent and then quantified by high-performance liquid chromatography.

[2] = tested on: Male Wistar rats; test: Effect of preventing drunken sickness (hangover) after ethyl alcohol administration; type: in vivo; settings: 2 mg/kg oral together with 10 ml/kg of 40 (v/v) % ethyl alcohol
Description: Male Wistar rats were preliminarily raised for 1 week. Then, the rats of 110 to 120 g in body weight were used. The rats were fasted overnight before the experiment and given neither food nor water during the experiment. The rats were divided into an alcohol single administration group (control group) and a sphingomyelin administration group. Each group contained 5 individuals. […] After administration, the rats were observed until they recovered from drunken symptoms.

[3] = tested on: lymphocytes from human milk; test: Test on promotion of secretory IgA production; type: cell-based; settings: 3 μg added to 3 ml Petri dish; after 7 days
Procedure: 5 ml of aseptically collected human milk was diluted twice with a 10 mM phosphate-buffered saline (PBS, pH 7.2) containing 150 mM NaCl and then layered in a test tube containing 5 ml of a separation solution (mixed solution of 33.4% Conray 400 (manufactured by Daiichi Pharmaceutical Co., Ltd.) and 9% Ficoll (manufactured by Pharmacia) at a ratio of 5:12). After centrifugation at 400×G for 30 minutes, the intermediate layer in which lymphocytes were gathered was collected with a Pasteur pipette. The lymphocytes were dispersed and washed in 10 ml of PBS and then centrifuged at 150×G for 10 minutes. This washing procedure was repeated three times. Then, 12 ml of an RPMI-1640 medium containing insulin (10 μg/ml) and transferrin (5 μg/ml) was added thereto, and the mixture was dispensed in an amount of 3 ml/Petri dish into 3 Petri dishes (A; […]

[4] = tested on: Chinese hamster lung fibroblast cell line V79; type: cell-based
Procedure: The antioxidative activity of sphingomyelin was measured according to the method of Nakayama et al. (Mutation Research, vol. 281, pp. 77-80, 1992). […] Then, the antioxidative activity of sphingomyelin was determined using reduction in colony forming activity attributed to hydrogen peroxide as an index for toxicity and assessed based on the extent to which the colony forming activity recovered from such reduction by adding sphingomyelin to the cultured cells for test. The cultured cells for test were inoculated onto a plate and precultured (cell adhesion) for 2 hours. […] The cultured cells for test were incubated for 4 hours so that the cells were allowed to take up sphingomyelin, prior to hydrogen peroxide. Next, the cells were reacted for 30 minutes by the addition of hydrogen peroxide and damaged. After reaction, the cells were cultured for 5 days in a medium containing serum. In this context, the concentration of hydrogen peroxide was set to 60 μM at which colony forming activity was decreased to a few % to approximately 40%. […] In this context, higher cell viability indicates the higher antioxidative activity of the added sphingomyelin.

[5] = tested on: enteropathogenic E. coli O-157; test: Test II on prevention of enteropathogenic E. coli O-157 infection; type: in vivo; settings: mice, 8th day after administration of E. coli
Procedure: Sphingomyelin was tested for its effect of preventing enteropathogenic E. coli O-157 infection according to the method described in “Test Example 2” of Japanese Patent Laid-Open No. 2001-2704.
Test II on prevention of enteropathogenic E. coli O-157 infection
The survival rate of mice on the 8th day after the administration of E. coli was measured in the same way as in Test Example 10 except that the intake of sphingomyelin was changed to 0.1 to 10 mg/day.

[6] = tested on: EAE rats; test: Effect of sphingomyelin on EAE rats; type: in vivo, Lewis rats; settings: for Cumulative score of symptoms: six-grade score 0-5
Procedure: A therapeutic effect on EAE rats serving as models of multiple sclerosis, one of demyelinating diseases, will be shown. The hind footpad of Lewis rats (female, 6 week old) in groups each containing 5 individuals was immunized with a mixture of syngeneic rat brain homogenates with an equal amount of a complete Freund adjuvant (manufactured by Difco) as an antigen for inducing EAE at a dose of 80 mg in terms of the amount of the brain homogenates. Sphingomyelin was intraperitoneally administered at a dose shown in Table 9 for 18 days from the immunization day. The measurement of body weights and the observation of EAE symptoms were performed every day. […] The therapeutic effect was assessed based on the cumulative score of the symptoms in each group. […] Only a saline was administered to the control group.

[7] = tested on: plaque-forming cells against the sheep red blood cells; test: Inhibitory effect on antibody production (IgM PFC against sheep red blood cells); type: in vivo, Lewis rats; settings: 2 mg/kg
Procedure: A mechanism under which sphingomyelin inhibits the onset of EAE was studied. […] The spleen was excised from each rat on the 18th day, and a single cell suspension was aseptically prepared therefrom. The red blood cells were removed by a hemolysis method. After washing with an RPMI-1640 medium, a cell suspension was prepared at a cell density of […]. The number of plaque-forming cells against the sheep red blood cells was counted according to the method of Jerne and used as the number of IgM PFC. From the results shown in Table 11, it was confirmed that sphingomyelin has inhibitory activity against antibody production.

[8] = 1 mg/kg intraperitoneal for 18 days
[9] = 2 mg/kg intraperitoneal for 18 days

**Q.** With sphingomyelin as the substance, how does the Sialomucin content [1] read?
**A.** Its Sialomucin content is 25.2 ± 2.9 µg/µL.

**Q.** What about the symptoms after administration [2] of the same substance?
**A.** The symptoms after administration was “only staggering gait”.

**Q.** What about the “time to recover from drunken symptoms” value ([2]; control 5 hours) of the same substance?
**A.** Its value is ≤ 1 h.

**Q.** What about the “IgA content in the culture solution” value [3] of the same substance?
**A.** The value was 3.11 µg/mL.

**Q.** What about the “own toxicity (colony forming activity)” value [4] of the same substance?
**A.** The value was “no reduction in colony forming activity”.

**Q.** What about the Survival rate ([5]; intake 0.1 mg/day, control 35) of the same substance?
**A.** Its Survival rate is 35%.

**Q.** And the Survival rate ([5]; intake 1.0 mg/day)?
**A.** Its Survival rate is 65%.

**Q.** What about the Survival rate ([5]; intake 5.0 mg/day) of the same substance?
**A.** Its Survival rate is 70%.

**Q.** And the Survival rate ([5]; intake 10.0 mg/day)?
**A.** The Survival rate was 70%.

**Q.** What about the “Cumulative score of symptoms with respect to saline-administered control group defined as 100%” value [6, 8] of the same substance?
**A.** Its value is 18%.

**Q.** And the Frequency of onset [6, 8]?
**A.** The Frequency of onset was 2/5.

**Q.** And the “The average number of days required for onset” value [6, 8]?
**A.** Its value is 15.2.

**Q.** What about the “Cumulative score of symptoms” value [6, 8] of the same substance?
**A.** Its value is 10.

**Q.** And the “Cumulative score of symptoms with respect to saline-administered control group defined as 100%” value [6, 9]?
**A.** Its value is 19%.

**Q.** What about the Frequency of onset [6, 9] of the same substance?
**A.** The Frequency of onset was 2/5.

**Q.** What about the “The average number of days required for onset” value [6, 9] of the same substance?
**A.** The value was 14.5.

**Q.** What about the “Cumulative score of symptoms” value [6, 9] of the same substance?
**A.** Its value is 11.

**Q.** And the “Average IgM/10^3 spl with respect to saline-administered control group defined as 100%” value [7]?
**A.** The value was 20%.

**Q.** And the “Average IgM/10^3 spl” value ([7]; spleen cells on the 18th day, saline 138)?
**A.** The value was 27.
